The experiment deals with T1, NapH1 (Streptomyces sp. CNQ-525, UniProt A7KH27).
T1 sequence (A7KH27 42-527): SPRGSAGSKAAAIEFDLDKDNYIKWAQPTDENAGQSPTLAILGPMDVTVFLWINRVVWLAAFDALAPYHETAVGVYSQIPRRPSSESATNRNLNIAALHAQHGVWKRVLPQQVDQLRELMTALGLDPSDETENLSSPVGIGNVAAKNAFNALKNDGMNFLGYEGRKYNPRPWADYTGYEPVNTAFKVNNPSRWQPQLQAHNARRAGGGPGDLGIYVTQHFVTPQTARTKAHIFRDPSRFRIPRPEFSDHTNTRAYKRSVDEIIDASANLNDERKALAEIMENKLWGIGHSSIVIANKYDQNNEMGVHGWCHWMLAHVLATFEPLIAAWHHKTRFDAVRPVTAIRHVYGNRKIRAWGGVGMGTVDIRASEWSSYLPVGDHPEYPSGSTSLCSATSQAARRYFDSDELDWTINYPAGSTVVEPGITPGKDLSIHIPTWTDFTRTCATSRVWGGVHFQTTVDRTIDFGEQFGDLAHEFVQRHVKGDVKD
Put plainly: crystal structure. It is filed as binding. The conditions noted are these: homodimer; structures with and without vanadate.

On to `[O]=[V]([OH])([OH])[OH]` [vanadate], for which the crystal structure entry was “we solved the three-dimensional structures of the homodimeric NapH1 with and without vanadate”.

Values taken from PMC6483395 (Synlett : accounts and rapid communications in synthetic …, 2017).
